Source: ChEMBL document CHEMBL3758161, “Synthesis and evaluation of antibacterial and antitumor activities of new galactopyranosylated amino alcohols” (Eur J Med Chem, 2016)
≈ marks a conversion by molar mass, not a printed value.

Key:
[1] = test system: Mycobacterium tuberculosis; experiment: microbe, parasite or virus in culture; conditions: H37Rv
Description: Antibacterial activity against Mycobacterium tuberculosis H37Rv

[2] = Lipophilicity, log P of the compound; type: physicochemical; conditions: octanol/water
HeLa = experiment: Cytotoxicity against human HeLa cells assessed as cell growth inhibition after 24 hrs by XTT assay; type: functional, cell-based
M059J = experiment: Cytotoxicity against human M059J cells assessed as cell growth inhibition after 24 hrs by XTT assay; type: functional, cell-based
[3] = Cytotoxicity against human GM07492A cells assessed as cell growth inhibition after 24 hrs by XTT assay; type: cell-based
MCF7 [4] = experiment: Selectivity index, ratio of IC50 for human GM07492A cells to IC50 for human MCF7 cells; type: functional
MCF7 [5] = experiment: cells; conditions: Homo sapiens, MCF7, 24 h
Description: Cytotoxicity against human MCF7 cells assessed as cell growth inhibition after 24 hrs by XTT assay

Staphylococcus aureus [6] = experiment: Bactericidal activity against gram-positive Staphylococcus aureus ATCC 3591 after 24 hrs by broth dilution method; type: functional; conditions: ATCC 3591, 24 h
Escherichia coli [7] = experiment: Bactericidal activity against gram-negative Escherichia coli ATCC 11229 after 24 hrs by broth dilution method; type: functional; conditions: ATCC 11229, 24 h
Pseudomonas aeruginosa [8] = experiment: Antibacterial activity against gram-negative Pseudomonas aeruginosa ATCC 2785 at 5 mg/ml incubated overnight by agar well diffusion method; type: functional; conditions: read-out: DIZ
[9] = test system: Staphylococcus epidermidis; experiment: Antibacterial activity against gram-positive Staphylococcus epidermidis ATCC 12228 at 5 mg/ml incubated overnight by agar well diffusion method; type: functional; conditions: read-out: DIZ
Pseudomonas aeruginosa [10] = experiment: Bactericidal activity against gram-negative Pseudomonas aeruginosa ATCC 2785 after 24 hrs by broth dilution method; type: functional; conditions: ATCC 2785, 24 h
[11] = test system: Staphylococcus epidermidis; experiment: Bactericidal activity against gram-positive Staphylococcus epidermidis ATCC 12228 after 24 hrs by broth dilution method; type: functional; conditions: ATCC 12228, 24 h
Staphylococcus aureus [12] = experiment: Antibacterial activity against gram-positive Staphylococcus aureus ATCC 3591 at 5 mg/ml incubated overnight by agar well diffusion method; type: functional; conditions: read-out: DIZ
Escherichia coli [13] = experiment: Antibacterial activity against gram-negative Escherichia coli ATCC 11229 at 5 mg/ml incubated overnight by agar well diffusion method; type: functional; conditions: read-out: DIZ

| Compound | MIC [1] [µM] | logP [2] | IC50 (HeLa) [µM] | IC50 (M059J) [µM] | IC50 [3] [µM] | Ratio IC50 (MCF7 [4]) | IC50 (MCF7 [5]) [µM] | MBC (Staphylococcus aureus [6]) [µM] | MBC (Escherichia coli [7]) [µM] | zone of inhibition at 5000 µg/mL (Pseudomonas aeruginosa [8]) [mm] | zone of inhibition at 5000 µg/mL [9] [mm] | MBC (Pseudomonas aeruginosa [10]) [µM] | MBC [11] [µM] | zone of inhibition at 5000 µg/mL (Staphylococcus aureus [12]) [mm] | zone of inhibition at 5000 µg/mL (Escherichia coli [13]) [mm] |
| --- | --- | --- | --- | --- | --- | --- | --- | --- | --- | --- | --- | --- | --- | --- | --- |
| CCCCCCCCCCCCNCCN | 27 (≈ 6.17 µg/mL) | 4.69 |  |  |  |  |  |  |  |  |  |  |  |  |  |
| CCCCCCCCCCCCNCCO | 27 (≈ 6.19 µg/mL) | 3.93 |  |  |  |  |  |  |  |  |  |  |  |  |  |
| CCCCCCCCNCCO | 577 (≈ 100 µg/mL) | 2.55 |  |  |  |  |  |  |  |  |  |  |  |  |  |
| CCCCCCCCCCNCCO | 248 (≈ 49.9 µg/mL) | 3.09 |  |  |  |  |  |  |  |  |  |  |  |  |  |
| CCCCCCCCCCCCN(CCO)C[C@@H](O)COC[C@H]1O[C@@H]2OC(C)(C)O[C@@H]2[C@H]2OC(C)(C)O[C@H]21 | 29 (≈ 15.8 µg/mL) | 4.22 | 105 | 97.8 | 260 | 3.4 | 75.7 |  |  |  |  |  |  |  |  |
| CCCCCCCCC(O)CNCCO (stereo not drawn) | 460 (≈ 100 µg/mL) | 2.14 |  |  |  |  |  |  |  |  |  |  |  |  |  |
| CCCCCCCCCCCCC(O)CNCCO (stereo not drawn) | 46 (≈ 12.6 µg/mL) | 4.69 |  |  |  |  |  |  |  |  |  |  |  |  |  |
| CCCCCCCCCCNCCCN | 116 (≈ 24.9 µg/mL) | 2.82 |  |  |  |  |  |  |  |  |  |  |  |  |  |
| CCCCCCCCCCNCCN | 249 (≈ 49.9 µg/mL) | 2.71 |  |  |  |  |  |  |  |  |  |  |  |  |  |
| CCCCCCCCCCCCCCNCCN | 97 (≈ 24.9 µg/mL) | 4.5 |  |  |  |  |  |  |  |  |  |  |  |  |  |
| CCCCCCCCCCC(O)CNCCO (stereo not drawn) | 102 (≈ 25 µg/mL) | 3.62 |  |  |  |  |  |  |  |  |  |  |  |  |  |
| CCCCCCCCCCCCN(CCO)C[C@H](O)COC[C@H]1O[C@@H]2OC(C)(C)O[C@@H]2[C@H]2OC(C)(C)O[C@H]21 | 15 (≈ 8.19 µg/mL) | 4.22 | 162 |  | 162 | 0.8 | 182 |  |  |  |  |  |  |  |  |
| CCCCCCCCCCCCCCNCCCN | 46 (≈ 12.4 µg/mL) | 4.88 |  |  |  |  |  |  |  |  |  |  |  |  |  |
| CCCCCCCCCCCCNCCCN | 103 (≈ 25 µg/mL) | 5.06 |  |  |  |  |  |  |  |  |  |  |  |  |  |
| CCCCCCCCCCC(O)CN(CCO)CC(O)COC[C@H]1O[C@@H]2OC(C)(C)O[C@@H]2[C@H]2OC(C)(C)O[C@H]21 (mixture of isomers) | 175 | 3.37 |  |  |  |  |  | > 911 | > 911 | 20 | 11 | > 911 | 28 |  |  |
| CCCCCCCCCCCCCCN(CCO)CC(O)COC[C@H]1O[C@@H]2OC(C)(C)O[C@@H]2[C@H]2OC(C)(C)O[C@H]21 (mixture of isomers) | 22 | 5.06 | 87.7 | 12.8 | 83 | 2.7 | 30.8 | 111 | > 892 |  | 30 | 892 | 3 | 18 |  |
| CCCCCCCCN(CCO)CC(O)COC[C@H]1O[C@@H]2OC(C)(C)O[C@@H]2[C@H]2OC(C)(C)O[C@H]21 (mixture of isomers) | > 204 | 2.55 |  |  |  |  |  |  |  |  |  |  |  |  |  |

| Compound | MIC [1] [µM] | logP [2] | IC50 (HeLa) [µM] | IC50 (M059J) [µM] | IC50 [3] [µM] | Ratio IC50 (MCF7 [4]) | IC50 (MCF7 [5]) [µM] | MBC (Staphylococcus aureus [6]) [µM] | MBC (Escherichia coli [7]) [µM] | zone of inhibition at 5000 µg/mL (Pseudomonas aeruginosa [8]) [mm] | zone of inhibition at 5000 µg/mL [9] [mm] | MBC (Pseudomonas aeruginosa [10]) [µM] | MBC [11] [µM] | zone of inhibition at 5000 µg/mL (Staphylococcus aureus [12]) [mm] | zone of inhibition at 5000 µg/mL (Escherichia coli [13]) [mm] |
| --- | --- | --- | --- | --- | --- | --- | --- | --- | --- | --- | --- | --- | --- | --- | --- |
| CCCCCCCCCCCCCCNCCNCC(O)COC[C@H]1O[C@@H]2OC(C)(C)O[C@@H]2[C@H]2OC(C)(C)O[C@H]21 (mixture of isomers) | 87 | 3.56 | 41.5 | 39.2 | 24.9 | 0.6 | 39.3 | 14 | 445 | 20 | 20 | > 894 | 14 | 22 | 10 |
| CCCCCCCCC(O)CN(CCO)CC(O)COC[C@H]1O[C@@H]2OC(C)(C)O[C@@H]2[C@H]2OC(C)(C)O[C@H]21 (mixture of isomers) | > 187 | 2.43 |  |  |  |  |  | 240 | > 959 | 18 | 22 | > 959 | 120 | 16 |  |
| CCCCCCCCCCNCCNCC(O)COC[C@H]1O[C@@H]2OC(C)(C)O[C@@H]2[C@H]2OC(C)(C)O[C@H]21 (mixture of isomers) | 24 | 3.15 | 40.2 | 39.2 | 63.3 | 2.3 | 28 | 8 | > 990 |  | 20 | > 990 | 8 | 20 | 16 |
| CCCCCCCCCCCCN(CCO)CC(O)COC[C@H]1O[C@@H]2OC(C)(C)O[C@@H]2[C@H]2OC(C)(C)O[C@H]21 (mixture of isomers) | 23 | 4.22 | 125 | 110 | 282 | 2.7 | 104 | > 938 | > 938 | 20 | 20 | > 938 | 4 |  |  |
| CCCCCCCCCCCCC(O)CN(CCO)CC(O)COC[C@H]1O[C@@H]2OC(C)(C)O[C@@H]2[C@H]2OC(C)(C)O[C@H]21 (mixture of isomers) |  |  |  |  |  |  |  | > 868 | > 868 |  | 18 | > 868 | 13 | 20 |  |
| CCCCCCCCCCCCNCCNCC(O)COC[C@H]1O[C@@H]2OC(C)(C)O[C@@H]2[C@H]2OC(C)(C)O[C@H]21 (mixture of isomers) | 91 | 3.99 |  | 10 | 7.3 | 0.6 | 11.9 | 15 | 235 | 20 | 20 | > 940 | 15 | 30 | 10 |
| CCCCCCCCCCN(CCO)CC(O)COC[C@H]1O[C@@H]2OC(C)(C)O[C@@H]2[C@H]2OC(C)(C)O[C@H]21 (mixture of isomers) | 96 | 3.39 |  |  |  |  |  | 123 | > 988 |  | 20 | 988 | 61 | 20 |  |
| CCCCCCCCCCCCNCCCNCC(O)COC[C@H]1O[C@@H]2OC(C)(C)O[C@@H]2[C@H]2OC(C)(C)O[C@H]21 (mixture of isomers) | 22 | 4.09 | 34.5 | 34.8 | 23.5 | 0.8 | 27.8 | > 916 | > 916 |  | 19 | > 916 | > 916 | 20 |  |
| CCCCCCCCCCNCCCNCC(O)COC[C@H]1O[C@@H]2OC(C)(C)O[C@@H]2[C@H]2OC(C)(C)O[C@H]21 (mixture of isomers) | 23 | 3.26 | 57 | 53.8 | 29.4 | 0.9 | 32.2 | 60 | 241 |  |  | > 965 | 15 | 12 | 28 |
| CCCCCCCCCCCCCCNCCCNCC(O)COC[C@H]1O[C@@H]2OC(C)(C)O[C@@H]2[C@H]2OC(C)(C)O[C@H]21 (mixture of isomers) | 42 | 4.12 | 147 | 195 | 80.3 | 0.4 | 194 |  |  |  |  |  |  |  |  |
| CC[C@@]1(O)C(=O)OCc2c1cc1n(c2=O)Cc2cc3ccccc3nc2-1 [CAMPTOTHECIN] |  |  | 19.8 | 5.5 | 3.2 | 0.5 | 6 |  |  |  |  |  |  |  |  |
| COc1cccc2c1C(=O)c1c(O)c3c(c(O)c1C2=O)C[C@@](O)(C(=O)CO)C[C@@H]3O[C@H]1C[C@H](N)[C@H](O)[C@H](C)O1 [DOXORUBICIN] |  |  | 21.9 | 6.9 | 0.5 |  |  |  |  |  |  |  |  |  |  |
| CC[C@@H](CO)NCCN[C@@H](CC)CO [ETHAMBUTOL] | 15 (≈ 3.06 µg/mL) |  |  |  |  |  |  |  |  |  |  |  |  |  |  |
| COc1cc([C@@H]2c3cc4c(cc3[C@@H](O[C@@H]3O[C@@H]5CO[C@@H](C)O[C@H]5[C@H](O)[C@H]3O)[C@H]3COC(=O)[C@H]23)OCO4)cc(OC)c1O [ETOPOSIDE] |  |  | 226 | 58.9 | 1.2 | 0 | 82.6 |  |  |  |  |  |  |  |  |
| CCCCCCCCCCCCCCNCCO [MYRALACT] | 49 (≈ 12.6 µg/mL) | 4.76 |  |  |  |  |  |  |  |  |  |  |  |  |  |
| NC(=O)N/N=C/c1ccc([N+](=O)[O-])o1 [NITROFURAZONE] |  |  |  |  |  |  |  |  |  | 15 | 25 |  |  | 31 | 35 |
| CO[C@H]1/C=C/O[C@@]2(C)Oc3c(C)c(O)c4c(O)c(c(/C=N/N5CCN(C)CC5)c(O)c4c3C2=O)NC(=O)/C(C)=C\C=C\[C@H](C)[C@H](O)[C@@H](C)[C@@H](O)[C@@H](C)[C@H](OC(C)=O)[C@@H]1C [RIFAMPIN] | 1 (≈ 0.823 µg/mL) |  |  |  |  |  |  |  |  |  |  |  |  |  |  |
